Results published in patent US20250177359A1, “COMPOUNDS FOR USE IN THE TREATMENT OF CANCER AND INFLAMMATORY CONDITIONS” (priority 2022, published 2025).
Like-named read-outs stand apart in the source and are kept apart here.

Experiments:
PARP10 = target: T1, PARP10 (Homo sapiens, UniProt Q53GL7); experiment: Activity assay measuring NAD+ consumption, PARP10 (Tables 1-3); type: biochemical
T1 construct: made in house
T1 sequence (Q53GL7 1-1025): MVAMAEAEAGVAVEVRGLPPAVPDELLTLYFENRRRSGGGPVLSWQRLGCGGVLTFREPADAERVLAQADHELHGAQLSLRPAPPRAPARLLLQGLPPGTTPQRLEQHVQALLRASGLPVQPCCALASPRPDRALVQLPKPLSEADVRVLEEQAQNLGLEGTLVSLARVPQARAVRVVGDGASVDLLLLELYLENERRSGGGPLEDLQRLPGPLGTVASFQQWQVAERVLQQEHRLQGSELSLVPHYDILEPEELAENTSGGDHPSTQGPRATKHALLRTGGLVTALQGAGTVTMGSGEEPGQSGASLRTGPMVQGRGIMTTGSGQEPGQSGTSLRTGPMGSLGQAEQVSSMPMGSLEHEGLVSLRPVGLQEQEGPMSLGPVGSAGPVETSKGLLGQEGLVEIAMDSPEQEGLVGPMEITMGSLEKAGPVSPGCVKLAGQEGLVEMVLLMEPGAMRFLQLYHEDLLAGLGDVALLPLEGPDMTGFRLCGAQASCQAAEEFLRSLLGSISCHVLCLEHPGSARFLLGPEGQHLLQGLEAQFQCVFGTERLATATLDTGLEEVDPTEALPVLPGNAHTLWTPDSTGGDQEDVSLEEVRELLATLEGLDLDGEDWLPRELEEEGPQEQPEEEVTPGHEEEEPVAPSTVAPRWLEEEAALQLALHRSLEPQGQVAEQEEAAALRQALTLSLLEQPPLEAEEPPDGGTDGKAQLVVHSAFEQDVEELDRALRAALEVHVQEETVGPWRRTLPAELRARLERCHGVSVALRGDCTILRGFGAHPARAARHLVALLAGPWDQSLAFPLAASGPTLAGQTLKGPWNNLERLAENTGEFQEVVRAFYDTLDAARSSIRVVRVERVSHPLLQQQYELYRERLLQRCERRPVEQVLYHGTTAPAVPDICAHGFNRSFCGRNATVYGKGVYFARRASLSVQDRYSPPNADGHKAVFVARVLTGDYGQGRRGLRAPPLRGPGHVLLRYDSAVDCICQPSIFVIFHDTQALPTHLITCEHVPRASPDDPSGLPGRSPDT

PARP15 = target: T2, PARP15 (Homo sapiens, UniProt Q460N3); experiment: biochemical
T2 sequence (Q460N3 1-678): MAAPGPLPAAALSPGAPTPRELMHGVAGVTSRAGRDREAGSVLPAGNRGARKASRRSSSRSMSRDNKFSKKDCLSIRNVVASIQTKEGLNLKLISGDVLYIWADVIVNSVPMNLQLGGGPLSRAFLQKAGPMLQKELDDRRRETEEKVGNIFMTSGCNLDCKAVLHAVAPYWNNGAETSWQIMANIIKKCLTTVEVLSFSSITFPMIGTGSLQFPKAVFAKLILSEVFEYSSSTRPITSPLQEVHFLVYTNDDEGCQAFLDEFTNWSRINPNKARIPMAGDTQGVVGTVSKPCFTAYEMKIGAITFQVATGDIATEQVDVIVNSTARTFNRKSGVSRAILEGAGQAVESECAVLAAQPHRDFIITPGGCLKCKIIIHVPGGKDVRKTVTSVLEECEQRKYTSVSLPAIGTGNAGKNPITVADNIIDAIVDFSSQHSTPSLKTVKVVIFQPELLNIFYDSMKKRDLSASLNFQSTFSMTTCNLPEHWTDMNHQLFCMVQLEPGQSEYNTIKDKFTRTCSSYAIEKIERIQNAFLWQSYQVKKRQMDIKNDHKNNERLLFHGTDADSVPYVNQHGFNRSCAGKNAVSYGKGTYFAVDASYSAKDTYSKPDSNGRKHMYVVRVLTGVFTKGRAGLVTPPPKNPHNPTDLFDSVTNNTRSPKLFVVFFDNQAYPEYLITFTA
Experimental: (§1) All starting materials, reagents, and solvents were purchased from common commercial suppliers and were used as such without further purification. […] Organic solutions were dried over anhydrous Na2SO4 and concentrated with rotary evaporator at low pressure. All the reactions were routinely checked by thin-layer chromatography (TLC) on silica gel 60F254 (Merck) and visualized by using UV and iodine. Flash chromatography separations were carried out on Merck silica gel 60 (mesh 230-400) or by using automated Buchi Reveleris X2-UV with column FP Ecoflex Si 12 g. Yields were of purified products and were not optimized. ^1HNMR spectra were recorded at 400 MHz (Bruker Avance DRX-400), while ^13CNMR spectra were recorded at 101 MHz (Bruker Avance DRX-400). Chemical shifts are given in ppm (δ) relative to TMS. […] Mating constant (J) are reported in Hz. The purity of the tested compounds was evaluated by HPLC analysis using Jasco LC-4000 instrument equipped with a UV-Visible Diode Array Jasco-MD4015 (Jasco Corporation, Tokyo, Japan), and XTerra MS C18 column, 5 μm×4.6 mm×150 mm (Waters Corporation, Massachusetts, USA). Chromatograms were analyzed by ChromNAV2.0 Chromatography Data System software. […] The peak retention time (ret. time) is given in minutes. […] 1-Isobutoxy-4-methoxy-2-nitrobenzene (113). Isobutyl alcohol (0.6 mL, 6.43 mmol) was added, under nitrogen atmosphere at 0° C., to a suspension of NaH (0.26 g, 6.43 mmol) in dry DMF. After 15 minutes, 1-fluoro-4-methoxy-2-nitrobenzene 112 (1 g, 5.84 mmol) was also added and the reaction mixture was stirred at 80° C. for 4 h. […] (2-Isobutoxy-5-methoxyphenyl)amine (114). Zn (1.57 g, 24 mmol) and NH4C1 (2.45 g, 40 mmol) were added to a solution of 113 (0.46 g, 2 mmol) in acetone/H2O (50 mL, ratio 5:1). The reaction mixture was stirred at 60° C. for 3 h and, then, it was filtered over celite. […] N-(2,5-diethoxyphenyl)thiourea (55). […] N-(2-isobutoxy-5-methoxyphenyl)thiourea (115). […] A solution of Br2 (0.2 mL, 3.3 mmol) in CHCl3 (5 mL) was slowly added to a suspension of 45 (0.6 g, 3.3 mmol) in CHCl3 (13 mL), at 0° C. The reaction mixture was stirred at r.t. for 4 h and, then, a 10% solution of Na2SO3 in water was added to the mixture. […] 4,7-Diethoxy-1,3-benzothiazol-2-amine (66). […] 4-Isobutoxy-7-methoxy-1,3-benzothiazol-2-amine (116). […] Hydrazine hydrate (0.23 mL, 4.77 mmol) and CH3COOH (0.12 mL, 2.1 mmol) were added to a suspension of 56 (0.29 g, 1.59 mmol) in ethylene glycol (8 mL), and the reaction mixture was stirred for 24 h at 125° C. […] 6-Ethyl-2-hydrazino-1,3-benzothiazole (69). […] 6-Ispropyl-2-hydrazino-1,3-benzothiazole (70). […] 2-Hydrazino-4,7-dimethoxy-1,3-benzothiazole (73). […] 2-Hydrazino-5,7-dimethoxy-1,3-benzothiazole (75). […] 2-Hydrazino-4,7-Diethoxy-1,3-benzothiazole (77). […] 2-Hydrazino-5-methyl[1,3]thiazolo[5,4-b]pyridine (100). […] A solution of 67 (0.13 g, 0.65 mmol) in formic acid (5 mL) was refluxed for 10 h. The reaction mixture was then poured into ice/water and the pH was neutralized using a saturated solution of NaHCO3.

[1] = Toxicity using the WST-1 assay
PARP2 = target: T3, PARP2 (Homo sapiens, UniProt Q9UGN5); experiment: biochemical; type: biochemical; conditions: NAD+ consumption assay; > less than 50% inhibition at highest concentration, >> no inhibition
T3 construct: made in house
T3 sequence (Q9UGN5 whole entry): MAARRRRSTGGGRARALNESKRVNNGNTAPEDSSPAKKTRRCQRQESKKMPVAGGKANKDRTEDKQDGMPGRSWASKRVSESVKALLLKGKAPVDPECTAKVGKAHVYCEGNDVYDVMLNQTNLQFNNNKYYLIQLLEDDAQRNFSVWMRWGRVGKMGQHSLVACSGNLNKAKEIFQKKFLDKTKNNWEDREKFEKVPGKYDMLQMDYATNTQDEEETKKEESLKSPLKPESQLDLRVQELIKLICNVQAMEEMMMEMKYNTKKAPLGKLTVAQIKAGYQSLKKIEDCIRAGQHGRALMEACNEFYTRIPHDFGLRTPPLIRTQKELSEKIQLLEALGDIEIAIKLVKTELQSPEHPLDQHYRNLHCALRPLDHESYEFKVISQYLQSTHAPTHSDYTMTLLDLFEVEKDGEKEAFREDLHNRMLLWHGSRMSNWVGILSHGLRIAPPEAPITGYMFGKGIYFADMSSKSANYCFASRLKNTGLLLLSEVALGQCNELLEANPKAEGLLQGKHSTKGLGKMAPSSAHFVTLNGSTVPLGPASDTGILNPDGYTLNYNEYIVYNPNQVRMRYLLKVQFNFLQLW
Experimental: as §1

TNKS2 = target: T4, TNKS2 (Homo sapiens, UniProt Q9H2K2); experiment: biochemical; conditions: read-out: TNKS2 IC50; NAD+ consumption assay; > less than 50% inhibition at highest concentration, >> no inhibition
T4 sequence (Q9H2K2 1-1166): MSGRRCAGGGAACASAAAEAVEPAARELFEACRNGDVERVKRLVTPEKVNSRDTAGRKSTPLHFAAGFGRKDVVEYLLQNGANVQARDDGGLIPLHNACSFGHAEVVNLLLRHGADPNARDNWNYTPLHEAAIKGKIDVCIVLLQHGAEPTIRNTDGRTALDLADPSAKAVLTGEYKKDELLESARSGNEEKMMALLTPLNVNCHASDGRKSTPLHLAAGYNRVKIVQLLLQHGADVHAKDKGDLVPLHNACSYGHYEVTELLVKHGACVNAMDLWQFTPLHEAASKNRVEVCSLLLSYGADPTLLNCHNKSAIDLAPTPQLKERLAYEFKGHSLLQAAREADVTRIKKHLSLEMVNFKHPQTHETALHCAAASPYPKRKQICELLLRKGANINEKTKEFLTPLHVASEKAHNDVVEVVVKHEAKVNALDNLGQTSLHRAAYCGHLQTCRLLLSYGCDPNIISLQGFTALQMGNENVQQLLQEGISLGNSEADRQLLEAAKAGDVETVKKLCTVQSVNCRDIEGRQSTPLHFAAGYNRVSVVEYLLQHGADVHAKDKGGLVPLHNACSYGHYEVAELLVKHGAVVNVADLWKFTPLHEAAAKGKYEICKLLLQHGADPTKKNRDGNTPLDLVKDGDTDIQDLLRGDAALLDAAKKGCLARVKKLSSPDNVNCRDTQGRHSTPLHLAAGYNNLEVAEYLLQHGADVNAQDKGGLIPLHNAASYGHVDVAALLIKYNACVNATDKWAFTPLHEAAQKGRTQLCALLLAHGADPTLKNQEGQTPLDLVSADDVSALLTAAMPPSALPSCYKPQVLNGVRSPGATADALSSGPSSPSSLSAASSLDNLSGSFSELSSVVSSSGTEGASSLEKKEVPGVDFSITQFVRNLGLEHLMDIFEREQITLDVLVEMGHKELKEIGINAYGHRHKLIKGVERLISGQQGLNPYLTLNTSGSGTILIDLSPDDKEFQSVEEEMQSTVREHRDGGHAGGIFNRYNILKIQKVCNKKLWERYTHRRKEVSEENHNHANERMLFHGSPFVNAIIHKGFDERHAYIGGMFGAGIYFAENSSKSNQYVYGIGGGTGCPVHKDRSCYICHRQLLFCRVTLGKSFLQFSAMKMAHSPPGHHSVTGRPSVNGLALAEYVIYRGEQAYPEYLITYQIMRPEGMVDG
Experimental: as §1

[2] = Tables 1-3 assay, > less than 50% inhibition, >> no inhibition at reported concentration, * value limited by protein concentration, read-out: PARP10 IC50
[3] = read-out: PARP15 IC50, Tables 1-3 assay, > less than 50% inhibition, >> no inhibition at reported concentration, * value limited by protein concentration
[4] = PARP10 pIC50 ± SEM, Tables 1-3 assay
[5] = PARP10 IC50, Tables 1-3 assay, > less than 50% inhibition, >> no inhibition at reported concentration, * value limited by protein concentration

**Q.** With COc1ccc(OC)c2c1SC1=NNC(SC)N12 (stereo not drawn) [Compound 27, 5,8-Dimethoxy-3-(methylthio)-2,3-dihydro[1,2,4]triazolo[3,4-b][1,3]benzothiazole] as the compound, how does the IC50 (PARP10; [2]) read?
**A.** > 10 µM

**Q.** And the IC50 (PARP15; [3])?
**A.** > 10 µM

**Q.** Which IC50 (PARP10; PARP10 IC50, Tables 1-3 assay) does the source give for COc1cc2sc3nnc(N)n3c2cc1OC [Compound 104, 6,7-Dimethoxy[1,2,4]triazolo[3,4-b][1,3]benzothiazol-3-amine] here?
**A.** 0.11 µM

**Q.** What about the IC50 (PARP10; [4]) of the same compound?
**A.** 0.107 µM

**Q.** And the IC50 (PARP15; PARP15 IC50, Tables 1-3 assay)?
**A.** 0.17 µM

**Q.** For Nc1nnc2sc3cc(Br)ccc3n12 [Compound 108, 7-Bromo[1,2,4]triazolo[3,4-b][1,3]benzothiazol-3-amine], which IC50 (PARP10; PARP10 IC50, Tables 1-3 assay) is on record?
**A.** 0.06 µM

**Q.** And the IC50 (PARP15; PARP15 IC50, Tables 1-3 assay)?
**A.** 0.15 µM

**Q.** And the IC50 (PARP15; PARP15 pIC50 ± SEM, Tables 1-3 assay)?
**A.** 0.145 µM

**Q.** Which IC50 (PARP10; PARP10 IC50, Tables 1-3 assay) does the source give for COc1ccc(OCC(C)C)c2c1sc1nnc(N)n12 [Compound 110, 5-Isobutoxy-8-methoxy[1,2,4]triazolo[3,4-b][1,3]benzothiazol-3-amine] here?
**A.** 0.08 µM

**Q.** What about the IC50 (PARP10; [4]) of the same compound?
**A.** 0.0813 µM

**Q.** And the IC50 (PARP15)?
**A.** 0.18 µM

**Q.** With CCOc1ccc(OCC)c2c1sc1nncn12 [Compound 102, 5,8-Diethoxy[1,2,4]triazolo[3,4-b][1,3]benzothiazole] as the compound, how does the “inhibition of PARP10 (in words)” value (PARP10) read?
**A.** potent PARP10 inhibitors

**Q.** And the IC50 (PARP10; PARP10 IC50, Tables 1-3 assay)?
**A.** 0.61 µM

**Q.** Which IC50 (PARP10; [2]) does the source give for COc1ccc(OC)c2c1SC1=NNC(NC(=O)c3ccc(Cl)cc3)N12 (stereo not drawn) [Compound 29, 4-Chloro-N-(5,8-dimethoxy-2,3-dihydro[1,2,4]triazolo[3,4-b][1,3]benzothiazol-3-yl)benzamide] here?
**A.** > 10 µM

**Q.** What about the IC50 (PARP15; [3]) of the same compound?
**A.** 7.9 µM

**Q.** Which “toxicity (WST-1 assay)” value [1] does the source give for Oc1ccc(O)c2c1sc1nncn12 [Compound 17, [1,2,4]Triazolo[3,4-b][1,3]benzothiazol-5,8-diol] here?
**A.** dose dependent toxicity

**Q.** And the IC50 (PARP2)?
**A.** 0.24 µM

**Q.** And the IC50 (TNKS2)?
**A.** 3.1 µM

**Q.** What does the source list for c1cnc2sc3nncn3c2c1 [Compound 101, [1,2,4]Triazolo[3′,4′:2,3][1,3]thiazolo[5,4-b]pyridine]?
**A.** inhibition of PARP10 (in words) (PARP10): only weak inhibition; IC50 (PARP10; [5]): 30 µM

**Q.** For CC(=O)Nc1nnc2sc3cc(C)ccc3n12 [Compound 107, N-(7-methyl[1,2,4]triazolo[3,4-b][1,3]benzothiazol-3-yl)acetamide], which IC50 (PARP10; [5]) is on record?
**A.** 2.6 µM

**Q.** And the IC50 (PARP15; PARP15 IC50, Tables 1-3 assay, > less than 50% inhibition, >> no inhibition at reported concentration, * value limited by protein concentration)?
**A.** 5.2 µM

**Q.** Which “inhibition of PARP10 (in words)” value (PARP10) does the source give for CCOc1ccc(OCC)c2c1sc1nnc(N)n12 [Compound 103, 5,8-Diethoxy[1,2,4]triazolo[3,4-b][1,3]benzothiazol-3-amine] here?
**A.** potent PARP10 inhibitors

**Q.** And the IC50 (PARP10; PARP10 IC50, Tables 1-3 assay)?
**A.** 0.072 µM
